Source: patent publication US7291642B2, “Bradykinin-B1 antagonists, process for their preparation and their use as medicaments” (Boehringer Ingelheim International GmbH, priority 2004, dated 2007)
Where a name gives a salt, the structure may show the parent alone.

Biological target: T1, hBK1 receptor (Homo sapiens, UniProt P46663)
T1 construct: expressed in transfected cells; host or cells: CHO cells (membrane homogenate)
T1 sequence (P46663 1-353): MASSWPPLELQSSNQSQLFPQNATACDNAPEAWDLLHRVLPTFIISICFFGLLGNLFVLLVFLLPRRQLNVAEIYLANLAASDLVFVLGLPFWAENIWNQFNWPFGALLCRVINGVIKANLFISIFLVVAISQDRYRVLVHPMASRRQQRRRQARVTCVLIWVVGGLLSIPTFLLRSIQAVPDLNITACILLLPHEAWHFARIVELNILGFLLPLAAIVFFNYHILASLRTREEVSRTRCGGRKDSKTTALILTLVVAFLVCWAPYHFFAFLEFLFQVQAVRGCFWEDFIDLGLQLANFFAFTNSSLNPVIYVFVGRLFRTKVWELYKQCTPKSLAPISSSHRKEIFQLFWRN
Experiment: hBK1 receptor binding
Settings: membranes of CHO cells expressing the hBK1 receptor; radioligand 0.5 to 1.0 nM kallidin (DesArg10, Leu9), [3,4-prolyl-3,43H(N)]; 60 minutes, room temperature
Method: CHO cells expressing the hBK1 receptor are cultivated in Dulbecco's modified medium. The medium from confluent cultures is removed and the cells are washed with PBS buffer, scraped off and isolated by centrifugation. The cells are then homogenized in suspension and the homogenate is centrifuged and resuspended. The protein content is determined and the membrane preparation obtained in this manner is then frozen at −80° C.
After thawing, 200 μl of the homogenate (50 to 100 μg of proteins/assay) are incubated at room temperature with 0.5 to 1.0 nM of kallidin (DesArg10, Leu9), [3,4-prolyl-3,43H(N)] and increasing concentrations of the test substance in a total volume of 250 μl for 60 minutes. The incubation is terminated by rapid filtration through GF/B glass fibre filters which had been pretreated with polyethyleneimine (0.3%). The protein-bound radioactivity is measured in a TopCount NXT. Non-specific binding is defined as radioactivity bound in the presence of 1.0 μM of […]. The concentration/binding curve is analysed using a computer-assisted nonlinear curve fitting. The Ki which corresponds to the test substance is determined using the data obtained in this manner.

| SMILES | Ki |
| --- | --- |
| CC(C)N(CCCC(=O)N(C)CCc1ccc(C2=NCCN2)cc1)S(=O)(=O)c1cccc(Cl)c1Cl [A, 4-[(2,3-dichlorobenzenesulphonyl)isopropylamino]-N-{2-[4-(4,5-dihydro-1H-imidazol-2-yl)phenyl]ethyl}-N-methylbutyramide] | 62 nM |
| Cc1cc(S(=O)(=O)N2CCCCC2CCC(=O)N(C)CCc2ccc(C3=NCCN3)cc2)c(C)cc1Cl (centres unmarked) [B, 3-[1-(4-chloro-2,5-dimethylbenzenesulphonyl)piperidin-2-yl]-N-{2-[4-(4,5-dihydro-1H-imidazol-2-yl)phenyl]ethyl}-N-methylpropionamide hydrochloride] | 26 nM |
| CN(CCc1ccc(C2=NCCN2)cc1)C(=O)C1CCCN(S(=O)(=O)c2cccc(Cl)c2Cl)C1 (centres unmarked) [C, 1-[(2,3-dichlorobenzenesulphonyl)piperidin-3-yl]-N-({2-[4-(4,5-dihydro-1H-imidazol-2-yl)phenyl]ethyl}methyl)carboxamide] | 957 nM |
| Cc1cc(S(=O)(=O)N(C)CCNC(=O)CCc2ccc(C3=NCCN3)cc2)c(C)cc1Cl [D, N-{2-[(4-chloro-2,5-dimethylbenzenesulphonyl)methylamino]ethyl}-3-[4-(4,5-dihydro-1H-imidazol-2-yl)phenyl]propionamide] | 170 nM |
| CN(CCN1CCN(CCc2ccc(C3=NCCN3)cc2)C1=O)S(=O)(=O)c1cccc(Cl)c1Cl [E, 2,3-dichloro-N-[2-(3-{2-[4-(4,5-dihydro-1H-imidazol-2-yl)phenyl]ethyl}-2-oxoimidazolidin-1-yl)ethyl]-N-methylbenzenesulphonamide hydrochloride] | 1520 nM |
